Measured values as given in PMC7700809 (Molecular Biomedicine, 2020).

Tests used:
SARS-CoV-2 [1] = test: microbe, parasite or virus in culture; assay type: cell-based; details: Severe acute respiratory syndrome coronavirus 2, Vero, read-out: EC50 antiviral replication effect
SARS-CoV-2 [2] = test: microbe, parasite or virus in culture; assay type: cell-based

In the case of `CCC(CC)COC(=O)[C@H](C)N[P@](=O)(OC[C@H]1O[C@@](C#N)(c2ccc3c(N)ncnn23)[C@H](O)[C@@H]1O)Oc1ccccc1` [Remdesivir], the EC50 (SARS-CoV-2 [1]) is reported as 240 nM and the virus entry blocking (SARS-CoV-2 [2]) is reported as “could not block the virus entry”.
